From article PMC6270026, “Antibacterial and Herbicidal Activity of Ring-Substituted 2-Hydroxynaphthalene-1-carboxanilides” (Molecules, 2013)
≈ marks a conversion by molar mass, not a printed value. Where “and” joins values, the source holds several entries; their conditions need not be identical. Equal entries are not always repeated.

Experiments:
[1] = tested on: M. kansasii DSM 44162; assay: In vitro antimycobacterial evaluation (broth dilution MIC); type: cell-based; details: Mycobacterium kansasii, DSM44162, 168 h; M. kansasii DSM 44162, 7 days, 37 °C
[2] = tested on: Mycobacterium marinum CAMP 5644; assay: as above; type: cell-based; details: for MIC: Mycobacterium marinum, CAMP5644, 504 h, M. marinum CAMP 5644, 21 days, 28 °C
[3] = tested on: Mycobacterium avium subsp. paratuberculosis (CIT03); assay: In vitro antimycobacterial evaluation (alamarBlue MIC); type: cell-based; details: 264 h, M. avium paratuberculosis CIT03, 11 days, 37 °C
Experimental: A well characterised clinical isolate of Mycobacterium avium subsp. paratuberculosis (CIT03) was grown in Middlebrook broth (MB), supplemented with Oleic-Albumin-Dextrose-Catalase supplement (OADC, Becton, Dickinson & Comp., Franklin Lakes, NJ, USA) and mycobactin J (2 µg/mL). Identification of this isolate was performed using biochemical and molecular protocols. At log phase growth, a culture sample (10 mL) was centrifuged at 15,000 rpm/20 min using a bench top centrifuge (Model CR 4-12, Jouan Inc., Winchester, VA, USA). Following removal of the supernatant, the pellet was washed in fresh Middlebrook 7H9GC broth and re-suspended in fresh supplemented MB (10 mL). The turbidity was adjusted to match McFarland standard No. 1 (3 × 10^8 cfu) with MB broth. A further 1:20 dilution of the culture was then performed in MB broth. The antimicrobial susceptibility of the mycobacterial species was investigated in a 96-well plate format. In these experiments, sterile deionised water (300 µL) was added to all outer-perimeter wells of the plates to minimize evaporation of the medium in the test wells during incubation. Each evaluated compound (100 µL) was incubated with each of the mycobacterial species (100 µL). Dilutions of each compound were prepared in duplicate. For all synthesized compounds, final concentrations ranged from 1,000 µg/mL to 8 µg/mL. All compounds were prepared in DMSO and subsequent dilutions were made in supplemented MB. The plates were sealed with parafilm and incubated at 37 °C, for 11 days in the case of M. avium paratuberculosis. Following incubation, a 10% addition of alamarBlue (AbD Serotec, Kidlington, UK) was mixed into each well and readings at 570 nm and 600 nm were taken, initially for background subtraction and subsequently after 24 h re-incubation. The background subtraction is necessary for strongly coloured compounds, where the colour may interfere with the interpretation of any colour change. For non-interfering compounds, a blue colour in the well was interpreted as an absence of growth and a pink colour was scored as growth. The minimum inhibitory concentrations (MICs) were initially defined as the lowest concentration which prevented a visual colour change from blue to pink.
The MICs were defined as the lowest concentration of the compound at which no visible bacterial growth was observed. The MIC value is routinely and widely used in bacterial assays and is a standard detection limit according to the Clinical and Laboratory Standards Institute (CLSI). Isoniazid (Sigma-Aldrich) was used as reference antimycobacterial drug.

[4] = Lipophilicity determination by RP-HPLC (capacity factor log k); type: physicochemical; details: isocratic, MeOH 60%/H2O 40%, C18
Experimental: A HPLC system Agilent 1200 equipped with DAD detector (Agilent, Santa Clara, CA, USA) was used. A chromatographic column Symmetry® C18 5 μm, 4.6 × 250 mm, Part No. WAT054275, (Waters Corp., Milford, MA, USA) was used. The HPLC separation process was monitored and evaluated by EZChrom Elite software ver. 3.3.2 (Agilent). Isocratic elution by a mixture of MeOH p.a. (60%) and H2O-HPLC Mili-Q grade (40%) as a mobile phase was used. The total flow of the column was 1.0 mL/min, injection 20 μL, column temperature 40 °C and sample temperature 10 °C. The detection wavelength 210 nm was chosen. The KI methanolic solution was used for the dead time (tD) determination. Retention times (tR) were measured in minutes. The capacity factors k were calculated according to formula k = (tR − tD)/tD, where tR is the retention time of the solute, whereas tD denotes the dead time obtained using an unretained analyte. Log k, calculated from the capacity factor k, is used as the lipophilicity index converted to log P scale.

[5] = tested on: photosynthetic electron transport (PET) in spinach chloroplasts; assay: Inhibition of photosynthetic electron transport (PET) in spinach chloroplasts; type: biochemical, Spinacia oleracea L.; details: DCPIP photoreduction
Experimental: Chloroplasts were prepared from spinach (Spinacia oleracea L.) according to Masarovicova and Kralova. The inhibition of photosynthetic electron transport (PET) in spinach chloroplasts was determined spectrophotometrically (Genesys 6, Thermo Electron Scientific Instruments, Madison, WI, USA), using an artificial electron acceptor 2,6-dichlorophenol-indophenol (DCPIP) according to Kralova et al., and the rate of photosynthetic electron transport was monitored as a photoreduction of DCPIP. The measurements were carried out in phosphate buffer (0.02 mol/L, pH 7.2) containing sucrose (0.4 mol/L), MgCl2 (0.005 mol/L) and NaCl (0.015 mol/L). The chlorophyll content was 30 mg/L in these experiments and the samples were irradiated (~100 W/m^2 with 10 cm distance) with a halogen lamp (250 W) using a 4 cm water filter to prevent warming of the samples (suspension temperature 22 °C). The studied compounds were dissolved in DMSO due to their limited water solubility. […] The inhibitory efficiency of the studied compounds was expressed by IC50 values, i.e., by molar concentration of the compounds causing 50% decrease in the oxygen evolution rate relative to the untreated control.

[6] = tested on: M. smegmatis ATCC 700084; assay: In vitro antimycobacterial evaluation (broth dilution MIC); type: cell-based, Mycobacterium smegmatis; details: Mycolicibacterium smegmatis, ATCC700084, 72 h; M. smegmatis ATCC 700084, 3 days, 37 °C
[7] = tested on: methicillin-resistant Staphylococcus aureus SA 630; assay: In vitro antibacterial susceptibility testing (broth dilution MIC); type: cell-based; details: MRSA, clinical isolate SA 630, 24 h, 37 °C
Experimental: (§1) The synthesized compounds were evaluated for in vitro antibacterial activity against representatives of multidrug-resistant bacteria, clinical isolates of methicillin-resistant Staphylococcus aureus (MRSA) 63718, SA 630 and SA 3202 that were obtained from the National Institute of Public Health, Prague, Czech Republic. Staphylococcus aureus ATCC 29213 was used as a reference and quality control strain. Ampicillin (Sigma-Aldrich) was used as the standard. Prior to testing, each strain was passaged onto nutrient agar (Oxoid, Hampshire, UK) with 5% of bovine blood, and bacterial inocula were prepared by suspending a small portion of bacterial colony in sterile phosphate buffered saline (pH 7.2–7.3). The cell density was adjusted to 0.5 McFarland units using a densitometer (Densi-La-Meter, LIAP, Riga, Latvia). The final inoculum was made by 1:20 dilution of the suspension with the Mueller-Hinton broth (MH broth). […] The final concentrations of the evaluated compounds ranging from 256 μg/mL to 0.008 μg/mL. The broth dilution micro-method modified according to NCCLS guidelines in MH broth was used to determine the minimum inhibitory concentration (MIC). Drug-free controls, sterility controls and controls consisted of MH broth and DMSO alone were included. The determination of results was performed visually after 24 h of static incubation in the darkness at 37 °C in an aerobic atmosphere. The MICs were defined as the lowest concentration of the compound at which no visible bacterial growth was observed.

[8] = tested on: methicillin-resistant Staphylococcus aureus SA 3202; assay: as above; type: cell-based; details: MRSA, clinical isolate SA 3202, 24 h, 37 °C, read-out: MIC MRSA 3202
Experimental: as §1

[9] = tested on: Staphylococcus aureus ATCC 29213; assay: as above; type: cell-based; details: ATCC29213; Staphylococcus aureus ATCC 29213, 24 h, 37 °C
Experimental: as §1

[10] = tested on: methicillin-resistant Staphylococcus aureus (MRSA) 63718; assay: as above; type: cell-based; details: clinical isolate MRSA 63718, 24 h, 37 °C
Experimental: as §1

SMILES	MIC [1]	MIC [2]	MIC [3]	log k [4]	IC50 [5]	MIC [6]	MIC [7]	MIC [8]	MIC [9]	MIC [10]	fold higher activity against M. marinum than isoniazid ([2]; ratio of MIC to isoniazid)
Cc1ccccc1NC(=O)c1c(O)ccc2ccccc12 [Compound 3a, 2-Hydroxy-N-(2-methylphenyl)naphthalene-1-carboxamide]	115 µM (≈ 31.9 µg/mL)	231 µM (≈ 64.1 µg/mL)	451 µM (≈ 125 µg/mL)	0.7962	586 µM						
O=C(Nc1cccc(Br)c1)c1c(O)ccc2ccccc12 [Compound 6b, N-(3-bromophenyl)-2-hydroxynaphthalene-1-carboxamide]	46.7 µM (≈ 16 µg/mL)	> 748 µM	731 µM (≈ 250 µg/mL)	0.8595	61.1 µM	> 748 µM	> 748 µM	> 748 µM	> 748 µM	> 748 µM	
Cc1ccc(NC(=O)c2c(O)ccc3ccccc23)cc1 [Compound 3c, 2-Hydroxy-N-(4-methylphenyl)naphthalene-1-carboxamide]	115 µM (≈ 31.9 µg/mL)	115 µM (≈ 31.9 µg/mL)	451 µM (≈ 125 µg/mL)	0.3751	874 µM				231 µM (≈ 64.1 µg/mL)		
Cc1cccc(NC(=O)c2c(O)ccc3ccccc23)c1 [Compound 3b, 2-Hydroxy-N-(3-methylphenyl)naphthalene-1-carboxamide]	115 µM (≈ 31.9 µg/mL)	231 µM (≈ 64.1 µg/mL)	451 µM (≈ 125 µg/mL)	0.4593	372 µM	231 µM (≈ 64.1 µg/mL)	231 µM (≈ 64.1 µg/mL)	231 µM (≈ 64.1 µg/mL)	231 µM (≈ 64.1 µg/mL)		
COc1cccc(NC(=O)c2c(O)ccc3ccccc23)c1 [Compound 2b, 2-Hydroxy-N-(3-methoxyphenyl)naphthalene-1-carboxamide]	109 µM (≈ 32 µg/mL)	218 µM (≈ 63.9 µg/mL)	426 µM (≈ 125 µg/mL)	0.6582	681 µM	218 µM (≈ 63.9 µg/mL)		218 µM (≈ 63.9 µg/mL)			
O=C(Nc1cccc(Cl)c1)c1c(O)ccc2ccccc12 [Compound 5b, N-(3-chlorophenyl)-2-hydroxynaphthalene-1-carboxamide]	53.7 µM (≈ 16 µg/mL)	> 860 µM	840 µM (≈ 250 µg/mL)	0.7904	79.7 µM	215 µM (≈ 64 µg/mL)	> 860 µM	107 µM (≈ 31.9 µg/mL)	> 860 µM	> 860 µM	
COc1ccccc1NC(=O)c1c(O)ccc2ccccc12 [Compound 2a, 2-Hydroxy-N-(2-methoxyphenyl)naphthalene-1-carboxamide]	> 873 µM	> 873 µM	852 µM (≈ 250 µg/mL)	0.5121	477 µM	> 873 µM	> 873 µM	> 873 µM	> 873 µM	> 873 µM	
COc1ccc(NC(=O)c2c(O)ccc3ccccc23)cc1 [Compound 2c, 2-Hydroxy-N-(4-methoxyphenyl)naphthalene-1-carboxamide]	218 µM (≈ 63.9 µg/mL)	109 µM (≈ 32 µg/mL)	852 µM (≈ 250 µg/mL)	0.6342							
O=C(Nc1ccc(F)cc1)c1c(O)ccc2ccccc12 [Compound 4c, N-(4-fluorophenyl)-2-hydroxynaphthalene-1-carboxamide]	> 910 µM	> 910 µM	> 889 µM	0.5568	313 µM	> 910 µM	> 910 µM	> 910 µM	> 910 µM	> 910 µM	
O=C(Nc1ccccc1Br)c1c(O)ccc2ccccc12 [Compound 6a, N-(2-bromophenyl)-2-hydroxynaphthalene-1-carboxamide]	93.5 µM (≈ 32 µg/mL)	> 748 µM	731 µM (≈ 250 µg/mL)	0.9509	52.2 µM	> 748 µM	> 748 µM	> 748 µM	> 748 µM	> 748 µM	
O=C(Nc1ccc(Br)cc1)c1c(O)ccc2ccccc12 [Compound 6c, N-(4-bromophenyl)-2-hydroxynaphthalene-1-carboxamide]	93.5 µM (≈ 32 µg/mL)	187 µM (≈ 64 µg/mL)	175 µM (≈ 59.9 µg/mL)	0.8790	102 µM	187 µM (≈ 64 µg/mL)	47 µM (≈ 16.1 µg/mL)	94.1 µM (≈ 32.2 µg/mL)	47 µM (≈ 16.1 µg/mL)	187 µM (≈ 64 µg/mL)	
CC1(C)S[C@@H]2[C@H](NC(=O)[C@H](N)c3ccccc3)C(=O)N2[C@H]1C(=O)O [APC, ampicillin, reference compound]				0.4337			> 45.8 µM	> 45.8 µM	5.7 µM (≈ 1.99 µg/mL)	> 45.8 µM	
NNC(=O)c1ccncc1 [INH, isoniazid, reference compound]		467 µM (≈ 64 µg/mL)	> 1820 µM	0.0141							
CN(C)C(=O)Nc1ccc(Cl)c(Cl)c1 [DCMU, 3-(3,4-dichlorophenyl)-1,1-dimethylurea, reference compound]				0.8801	~1.9 µM and 1.9 µM						
O=C(Nc1ccc([N+](=O)[O-])cc1)c1c(O)ccc2ccccc12 [Compound 8c, 2-Hydroxy-N-(4-nitrophenyl)naphthalene-1-carboxamide]	415 µM (≈ 128 µg/mL)	~52 µM (≈ 16 µg/mL)	811 µM (≈ 250 µg/mL)	0.6260	37.5 µM			104 µM (≈ 32.1 µg/mL)			about 9 fold
